Literature values as cited in US20100092463A1, “Method for treating or preventing osteoporosis by reducing follicle stimulating hormone to cyclic physiological levels in a mammalian subject” (Searete LLC, a limited liability corporation of the State …, priority 2008, published 2010).
Where a SMILES comes first, the peptide text is derived from it. [ ]: non-standard residue; d: D form. d(hArg(Et2)) = CCN=C(NCC)NCCCC[C@@H](N)C(=O)O; hArg(Et2) = CCN=C(NCC)NCCCC[C@H](N)C(=O)O; dPhe(4-Cl) = N[C@H](Cc1ccc(Cl)cc1)C(=O)O; d2Nal = N[C@H](Cc1ccc2ccccc2c1)C(=O)O; dCit = NC(=O)NCCC[C@@H](N)C(=O)O; d3Pal = N[C@H](Cc1cccnc1)C(=O)O

Settings: most common adverse effects being nausea and headache

Compound	tolerability
CC(=O)N[C@H](Cc1ccc2ccccc2c1)C(=O)N[C@H](Cc1ccc(Cl)cc1)C(=O)N[C@H](Cc1cccnc1)C(=O)N[C@@H](CO)C(=O)N[C@@H](Cc1ccc(O)cc1)C(=O)N[C@H](CCCNC(N)=O)C(=O)N[C@@H](CC(C)C)C(=O)N[C@@H](CCCNC(=N)N)C(=O)N1CCC[C@H]1C(=O)N[C@H](C)C(N)=O [cetrorelix] (Ac-[d2Nal][dPhe(4-Cl)][d3Pal]SY[dCit]LRP[dA]-NH2)	well tolerated
CCN=C(NCC)NCCCC[C@H](NC(=O)[C@H](CC(C)C)NC(=O)[C@@H](CCCCNC(=NCC)NCC)NC(=O)[C@H](Cc1ccc(O)cc1)NC(=O)[C@H](CO)NC(=O)[C@@H](Cc1cccnc1)NC(=O)[C@@H](Cc1ccc(Cl)cc1)NC(=O)[C@@H](Cc1ccc2ccccc2c1)NC(C)=O)C(=O)N1CCC[C@H]1C(=O)N[C@H](C)C(N)=O [ganirelix] (Ac-[d2Nal][dPhe(4-Cl)][d3Pal]SY[d(hArg(Et2))]L[hArg(Et2)]P[dA]-NH2)	well tolerated
